Measurements reported in ChEMBL document CHEMBL4507315 (2021).

Columns and labels:
[1] = molecular target: Mitogen-activated protein kinase kinase kinase 4 (Homo sapiens) (UniProt Q9Y6R4); conditions: Compound concentration 100.0 nM
[2] = molecular target: Dual specificity mitogen-activated protein kinase kinase 5 (Homo sapiens) (UniProt Q13163); conditions: Compound concentration 100.0 nM
[3] = test system: Receptor-type tyrosine-protein kinase FLT3 (Homo sapiens), P36888 [D835H]; conditions: Compound concentration 100.0 nM
[4] = molecular target: G protein-coupled receptor kinase 3 (Homo sapiens) (UniProt P35626); conditions: Compound concentration 100.0 nM
[5] = molecular target: Serine/threonine-protein kinase 26 (Homo sapiens) (UniProt Q9P289); conditions: Compound concentration 100.0 nM
Sequence of Serine/threonine-protein kinase 26 (Homo sapiens) (Q9P289 2-416 limits assumed): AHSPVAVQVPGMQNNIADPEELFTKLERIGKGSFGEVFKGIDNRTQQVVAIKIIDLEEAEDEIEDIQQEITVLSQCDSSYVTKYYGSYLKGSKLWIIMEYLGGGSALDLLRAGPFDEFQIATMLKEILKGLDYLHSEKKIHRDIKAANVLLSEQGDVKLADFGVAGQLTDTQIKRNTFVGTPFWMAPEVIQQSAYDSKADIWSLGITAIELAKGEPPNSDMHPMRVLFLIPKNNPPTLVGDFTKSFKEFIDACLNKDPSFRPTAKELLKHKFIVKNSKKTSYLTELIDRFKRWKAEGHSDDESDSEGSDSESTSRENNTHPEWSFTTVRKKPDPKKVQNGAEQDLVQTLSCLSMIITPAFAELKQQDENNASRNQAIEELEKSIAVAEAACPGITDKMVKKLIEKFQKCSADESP

[6] = molecular target: Dual serine/threonine and tyrosine protein kinase (Homo sapiens) (UniProt Q6XUX3); conditions: Compound concentration 100.0 nM
[7] = molecular target: Serine/threonine-protein kinase WNK1 (Homo sapiens) (UniProt Q9H4A3); conditions: Compound concentration 100.0 nM
[8] = test system: Receptor-type tyrosine-protein kinase FLT3 (Homo sapiens), P36888 [N841I]; conditions: Compound concentration 100.0 nM
[9] = test system: Phosphatidylinositol 4,5-bisphosphate 3-kinase catalytic subunit alpha isoform (Homo sapiens), P42336 [E545A]; conditions: Compound concentration 100.0 nM
[10] = molecular target: Ephrin type-A receptor 6 (Homo sapiens) (UniProt Q9UF33); conditions: Compound concentration 100.0 nM
[11] = molecular target: 5-hydroxytryptamine receptor 1E (Homo sapiens) (UniProt P28566); conditions: Compound concentration 10.0 uM
Sequence of 5-hydroxytryptamine receptor 1E (Homo sapiens) (P28566 whole entry): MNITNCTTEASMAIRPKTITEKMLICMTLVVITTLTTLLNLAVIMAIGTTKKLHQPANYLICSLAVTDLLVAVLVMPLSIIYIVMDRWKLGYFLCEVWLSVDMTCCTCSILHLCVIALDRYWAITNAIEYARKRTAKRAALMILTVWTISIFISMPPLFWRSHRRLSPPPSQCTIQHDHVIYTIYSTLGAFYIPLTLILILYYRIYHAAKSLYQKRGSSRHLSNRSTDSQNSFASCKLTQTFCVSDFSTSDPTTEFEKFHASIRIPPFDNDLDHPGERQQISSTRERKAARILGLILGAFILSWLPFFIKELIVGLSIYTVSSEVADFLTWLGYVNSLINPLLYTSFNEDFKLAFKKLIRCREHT

[12] = molecular target: Cyclin-dependent kinase 9 (Homo sapiens) (UniProt P50750); conditions: Compound concentration 100.0 nM
Sequence of Cyclin-dependent kinase 9 (Homo sapiens) (P50750 whole entry): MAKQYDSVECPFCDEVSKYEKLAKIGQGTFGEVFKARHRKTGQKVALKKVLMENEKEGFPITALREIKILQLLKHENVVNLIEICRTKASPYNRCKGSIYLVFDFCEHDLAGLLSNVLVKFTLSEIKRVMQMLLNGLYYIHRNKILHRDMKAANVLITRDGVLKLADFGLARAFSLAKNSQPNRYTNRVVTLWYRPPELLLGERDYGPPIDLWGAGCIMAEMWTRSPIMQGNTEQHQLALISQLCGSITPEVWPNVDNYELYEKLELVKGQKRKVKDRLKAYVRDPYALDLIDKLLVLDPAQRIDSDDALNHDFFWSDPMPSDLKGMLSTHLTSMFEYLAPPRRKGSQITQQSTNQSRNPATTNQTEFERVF

[13] = molecular target: Serine/threonine-protein kinase TBK1 (Homo sapiens) (UniProt Q9UHD2); conditions: Compound concentration 100.0 nM
Sequence of Serine/threonine-protein kinase TBK1 (Homo sapiens) (Q9UHD2 whole entry): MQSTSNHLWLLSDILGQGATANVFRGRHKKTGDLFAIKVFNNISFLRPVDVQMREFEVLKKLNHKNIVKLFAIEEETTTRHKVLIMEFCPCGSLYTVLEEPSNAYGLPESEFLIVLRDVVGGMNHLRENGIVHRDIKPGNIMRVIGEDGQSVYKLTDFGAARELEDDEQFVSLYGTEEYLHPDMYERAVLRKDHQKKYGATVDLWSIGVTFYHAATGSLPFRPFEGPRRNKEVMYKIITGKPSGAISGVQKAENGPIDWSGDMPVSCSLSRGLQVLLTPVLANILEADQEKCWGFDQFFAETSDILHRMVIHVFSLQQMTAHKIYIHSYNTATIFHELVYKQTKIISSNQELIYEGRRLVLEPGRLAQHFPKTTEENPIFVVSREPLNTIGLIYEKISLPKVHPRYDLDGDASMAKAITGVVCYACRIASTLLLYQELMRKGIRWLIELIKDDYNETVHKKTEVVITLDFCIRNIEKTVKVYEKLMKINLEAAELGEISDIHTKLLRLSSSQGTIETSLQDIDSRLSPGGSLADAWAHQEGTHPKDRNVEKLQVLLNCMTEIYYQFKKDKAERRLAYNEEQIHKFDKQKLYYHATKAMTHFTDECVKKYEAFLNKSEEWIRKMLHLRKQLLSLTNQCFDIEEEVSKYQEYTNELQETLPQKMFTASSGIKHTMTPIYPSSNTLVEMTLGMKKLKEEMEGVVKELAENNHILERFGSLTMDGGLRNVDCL

[14] = molecular target: Myosin light chain kinase family member 4 (Homo sapiens) (UniProt Q86YV6); conditions: Compound concentration 100.0 nM
[15] = molecular target: Mitogen-activated protein kinase kinase kinase 20 (Homo sapiens, UniProt Q9NYL2); assay: NanoBRET (MAP3K20)
[16] = molecular target: Ephrin type-B receptor 2 (Homo sapiens) (UniProt P29323); conditions: Compound concentration 100.0 nM
Sequence of Ephrin type-B receptor 2 (Homo sapiens) (P29323 whole entry): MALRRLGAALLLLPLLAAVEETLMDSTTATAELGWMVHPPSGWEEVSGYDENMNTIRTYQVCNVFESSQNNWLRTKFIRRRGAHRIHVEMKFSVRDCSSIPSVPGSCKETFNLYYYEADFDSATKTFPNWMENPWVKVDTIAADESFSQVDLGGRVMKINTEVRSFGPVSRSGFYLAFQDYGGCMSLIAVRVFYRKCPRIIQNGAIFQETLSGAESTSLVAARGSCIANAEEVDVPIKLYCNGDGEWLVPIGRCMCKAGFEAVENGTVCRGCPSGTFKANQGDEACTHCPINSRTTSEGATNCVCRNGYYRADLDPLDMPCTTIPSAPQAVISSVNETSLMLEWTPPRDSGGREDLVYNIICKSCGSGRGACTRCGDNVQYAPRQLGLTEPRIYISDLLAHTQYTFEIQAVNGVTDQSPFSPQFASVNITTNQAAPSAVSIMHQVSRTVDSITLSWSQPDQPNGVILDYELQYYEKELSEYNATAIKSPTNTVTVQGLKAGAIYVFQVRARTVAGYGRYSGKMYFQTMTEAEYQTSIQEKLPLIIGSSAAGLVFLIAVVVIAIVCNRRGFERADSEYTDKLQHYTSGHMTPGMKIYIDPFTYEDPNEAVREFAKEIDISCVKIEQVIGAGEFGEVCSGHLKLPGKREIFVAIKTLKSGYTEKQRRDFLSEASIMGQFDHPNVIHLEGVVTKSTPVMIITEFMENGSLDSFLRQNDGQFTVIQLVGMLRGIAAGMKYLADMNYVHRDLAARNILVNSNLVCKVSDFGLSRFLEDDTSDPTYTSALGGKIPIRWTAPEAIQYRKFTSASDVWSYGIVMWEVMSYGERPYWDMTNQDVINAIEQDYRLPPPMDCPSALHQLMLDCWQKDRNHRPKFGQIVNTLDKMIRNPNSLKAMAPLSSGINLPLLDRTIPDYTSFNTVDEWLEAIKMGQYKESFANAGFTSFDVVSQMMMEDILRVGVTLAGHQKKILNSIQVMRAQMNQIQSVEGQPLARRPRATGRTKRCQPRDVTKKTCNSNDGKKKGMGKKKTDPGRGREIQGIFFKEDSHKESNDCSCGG

[17] = molecular target: Cyclin-dependent kinase 17 (Homo sapiens) (UniProt Q00537); conditions: Compound concentration 100.0 nM
[18] = molecular target: Serine/threonine-protein kinase PAK 6 (Homo sapiens) (UniProt Q9NQU5); conditions: Compound concentration 100.0 nM
[19] = test system: Tyrosine-protein kinase ABL1 (Homo sapiens), P00519 [Q252H]; conditions: Compound concentration 100.0 nM
[20] = molecular target: Mitogen-activated protein kinase kinase kinase kinase 2 (Homo sapiens) (UniProt Q12851); conditions: Compound concentration 100.0 nM
[21] = molecular target: Serine/threonine-protein kinase SBK1 (Homo sapiens) (UniProt Q52WX2); conditions: Compound concentration 100.0 nM
[22] = molecular target: Sodium-dependent dopamine transporter (Homo sapiens) (UniProt Q01959); conditions: Compound concentration 10.0 uM
[23] = molecular target: Serine/threonine-protein kinase DCLK2 (Homo sapiens) (UniProt Q8N568); conditions: Compound concentration 100.0 nM
[24] = molecular target: Protein kinase C eta type (Homo sapiens) (UniProt P24723); conditions: Compound concentration 100.0 nM
[25] = molecular target: Tyrosine-protein kinase JAK1 (Homo sapiens) (UniProt P23458); conditions: Compound concentration 100.0 nM
[26] = molecular target: Platelet-derived growth factor receptor alpha (Homo sapiens) (UniProt P16234); conditions: Compound concentration 100.0 nM
[27] = molecular target: Non-receptor tyrosine-protein kinase TYK2 (Homo sapiens) (UniProt P29597); conditions: Compound concentration 100.0 nM
[28] = molecular target: Serine/threonine-protein kinase DCLK3 (Homo sapiens) (UniProt Q9C098); conditions: Compound concentration 100.0 nM
[29] = molecular target: Cytoplasmic tyrosine-protein kinase BMX (Homo sapiens) (UniProt P51813); conditions: Compound concentration 100.0 nM
[30] = molecular target: Serine/threonine-protein kinase PLK3 (Homo sapiens) (UniProt Q9H4B4); conditions: Compound concentration 100.0 nM
[31] = molecular target: Tyrosine-protein kinase Fgr (Homo sapiens) (UniProt P09769); conditions: Compound concentration 100.0 nM
[32] = test system: Phosphatidylinositol 4,5-bisphosphate 3-kinase catalytic subunit alpha isoform (Homo sapiens), P42336 [H1047Y]; conditions: Compound concentration 100.0 nM
[33] = molecular target: Tyrosine-protein kinase ZAP-70 (Homo sapiens) (UniProt P43403); conditions: Compound concentration 100.0 nM
[34] = molecular target: Tyrosine-protein kinase ABL1 (Homo sapiens) (UniProt P00519); conditions: Compound concentration 100.0 nM
[35] = molecular target: Misshapen-like kinase 1 (Homo sapiens) (UniProt Q8N4C8); conditions: Compound concentration 100.0 nM
Sequence of Misshapen-like kinase 1 (Homo sapiens) (Q8N4C8 whole entry, looked up): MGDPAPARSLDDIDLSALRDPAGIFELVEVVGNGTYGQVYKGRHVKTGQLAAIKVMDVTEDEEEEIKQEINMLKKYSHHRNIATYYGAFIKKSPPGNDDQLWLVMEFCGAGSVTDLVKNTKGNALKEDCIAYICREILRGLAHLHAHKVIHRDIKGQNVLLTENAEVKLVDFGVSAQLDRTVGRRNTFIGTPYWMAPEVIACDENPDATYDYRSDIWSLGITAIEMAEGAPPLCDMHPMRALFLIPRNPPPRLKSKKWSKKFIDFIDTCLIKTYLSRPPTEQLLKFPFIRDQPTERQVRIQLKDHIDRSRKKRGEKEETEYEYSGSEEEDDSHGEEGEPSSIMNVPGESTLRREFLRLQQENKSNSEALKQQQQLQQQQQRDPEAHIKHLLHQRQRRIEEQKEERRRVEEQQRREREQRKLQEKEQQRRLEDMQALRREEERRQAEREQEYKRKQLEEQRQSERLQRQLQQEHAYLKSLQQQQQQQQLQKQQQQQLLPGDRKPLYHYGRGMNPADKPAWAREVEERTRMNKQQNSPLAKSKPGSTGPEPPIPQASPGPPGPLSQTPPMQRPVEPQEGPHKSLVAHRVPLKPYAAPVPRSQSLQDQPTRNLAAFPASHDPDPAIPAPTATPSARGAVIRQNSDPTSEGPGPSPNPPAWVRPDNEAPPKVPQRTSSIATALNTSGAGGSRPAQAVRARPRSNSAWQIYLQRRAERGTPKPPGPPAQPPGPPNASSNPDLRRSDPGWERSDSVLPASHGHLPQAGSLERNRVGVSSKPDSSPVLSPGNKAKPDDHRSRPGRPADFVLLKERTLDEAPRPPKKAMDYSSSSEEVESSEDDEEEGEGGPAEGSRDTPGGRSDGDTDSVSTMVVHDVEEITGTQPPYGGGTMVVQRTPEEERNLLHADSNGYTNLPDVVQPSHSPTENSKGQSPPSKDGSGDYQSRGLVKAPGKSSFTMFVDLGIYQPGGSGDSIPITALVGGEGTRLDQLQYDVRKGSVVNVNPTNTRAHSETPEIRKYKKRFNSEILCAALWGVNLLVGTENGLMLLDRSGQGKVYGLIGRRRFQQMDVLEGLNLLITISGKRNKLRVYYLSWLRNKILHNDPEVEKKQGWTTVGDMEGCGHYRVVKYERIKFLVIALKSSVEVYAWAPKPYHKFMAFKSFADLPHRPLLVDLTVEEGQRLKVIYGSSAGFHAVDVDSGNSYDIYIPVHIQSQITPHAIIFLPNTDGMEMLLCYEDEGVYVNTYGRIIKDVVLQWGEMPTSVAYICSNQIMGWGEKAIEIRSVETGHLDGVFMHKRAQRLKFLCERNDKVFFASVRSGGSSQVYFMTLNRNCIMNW

[36] = molecular target: Interleukin-1 receptor-associated kinase 4 (Homo sapiens) (UniProt Q9NWZ3); conditions: Compound concentration 100.0 nM
[37] = test system: Epidermal growth factor receptor (Homo sapiens), P00533 [G719S]; conditions: Compound concentration 100.0 nM
[38] = molecular target: Tyrosine-protein kinase Fes/Fps (Homo sapiens) (UniProt P07332); conditions: Compound concentration 100.0 nM
[39] = molecular target: Atypical kinase COQ8A, mitochondrial (Homo sapiens) (UniProt Q8NI60); conditions: Compound concentration 100.0 nM
[40] = molecular target: Ribosomal protein S6 kinase alpha-1 (Homo sapiens) (UniProt Q15418); conditions: Compound concentration 100.0 nM
[41] = molecular target: Serine/threonine-protein kinase 32C (Homo sapiens) (UniProt Q86UX6); conditions: Compound concentration 100.0 nM
[42] = molecular target: Dual specificity mitogen-activated protein kinase kinase 1 (Homo sapiens) (UniProt Q02750); conditions: Compound concentration 100.0 nM
[43] = molecular target: Activin receptor type-1-like (Homo sapiens) (UniProt P37023); conditions: Compound concentration 100.0 nM
[44] = test system: Proto-oncogene tyrosine-protein kinase receptor Ret (Homo sapiens), P07949 [V804M]; conditions: Compound concentration 100.0 nM
[45] = molecular target: Bone morphogenetic protein receptor type-1B (Homo sapiens) (UniProt O00238); conditions: Compound concentration 100.0 nM

Sequence of Dual specificity mitogen-activated protein kinase kinase 5 (Homo sapiens) (Q13163 whole entry): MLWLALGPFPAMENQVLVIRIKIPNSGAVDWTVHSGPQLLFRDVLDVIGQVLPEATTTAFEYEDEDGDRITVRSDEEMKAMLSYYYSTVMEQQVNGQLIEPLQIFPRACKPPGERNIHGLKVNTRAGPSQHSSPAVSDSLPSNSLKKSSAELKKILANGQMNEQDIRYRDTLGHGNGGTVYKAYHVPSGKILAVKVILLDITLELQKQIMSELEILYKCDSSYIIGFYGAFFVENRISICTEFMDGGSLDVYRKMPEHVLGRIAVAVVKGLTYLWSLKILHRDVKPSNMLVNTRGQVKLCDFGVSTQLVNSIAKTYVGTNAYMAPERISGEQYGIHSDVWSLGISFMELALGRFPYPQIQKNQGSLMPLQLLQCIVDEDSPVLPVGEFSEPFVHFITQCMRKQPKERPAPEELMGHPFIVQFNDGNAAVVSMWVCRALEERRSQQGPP

## Nc1c(C(=O)NCc2ccc(C(=O)NCCCC3CCCCC3)cc2)cnn1-c1ccccc1 [SR-318]
[1]
  residual activity: 81%
[2]
  residual activity: 100%
[3]
  residual activity: 100%
[4]
  residual activity: 100%
[5]
  residual activity: 97%
[6]
  residual activity: 100%
[7]
  residual activity: 100%
[8]
  residual activity: 95%
[9]
  residual activity: 100%
[10]
  residual activity: 94%
[11]
  inhibition: 1%
[12]
  residual activity: 100%
[13]
  residual activity: 96%
[14]
  residual activity: 100%
[15]
  IC50: 0.91 µM (not active)
[16]
  residual activity: 100%
[17]
  residual activity: 78%
[18]
  residual activity: 100%
[19]
  residual activity: 98%
[20]
  residual activity: 94%
[21]
  residual activity: 82%
[22]
  inhibition: 26.8%
[23]
  residual activity: 100%
[24]
  residual activity: 98%
[25]
  residual activity: 100%
[26]
  residual activity: 100%
[27]
  residual activity: 100%
[28]
  residual activity: 100%
[29]
  residual activity: 100%
[30]
  residual activity: 100%
[31]
  residual activity: 100%
[32]
  residual activity: 77%
[33]
  residual activity: 100%
[34]
  residual activity: 81%
[35]
  residual activity: 100%
[36]
  residual activity: 100%
[37]
  residual activity: 84%
[38]
  residual activity: 100%
[39]
  residual activity: 100%
[40]
  residual activity: 92%
[41]
  residual activity: 90%
[42]
  residual activity: 100%
[43]
  residual activity: 100%
[44]
  residual activity: 98%
[45]
  residual activity: 100%

## O=C(NCCCC1CCCCC1)c1ccc(CNC(=O)c2cnn(-c3ccccc3)c2C(F)(F)F)cc1 [SR-321]
[1]
  residual activity: 100%
[2]
  residual activity: 73%
[3]
  residual activity: 100%
[4]
  residual activity: 100%
[5]
  residual activity: 93%
[6]
  residual activity: 100%
[7]
  residual activity: 100%
[8]
  residual activity: 88%
[9]
  residual activity: 100%
[10]
  residual activity: 88%
[11]
  inhibition: -6.92%
[12]
  residual activity: 100%
[13]
  residual activity: 100%
[14]
  residual activity: 100%
[15]
  IC50: 5.8 µM (not active)
[16]
  residual activity: 100%
[17]
  residual activity: 100%
[18]
  residual activity: 100%
[19]
  residual activity: 98%
[20]
  residual activity: 100%
[21]
  residual activity: 100%
[22]
  inhibition: 22.3%
[23]
  residual activity: 100%
[24]
  residual activity: 100%
[25]
  residual activity: 89%
[26]
  residual activity: 92%
[27]
  residual activity: 100%
[28]
  residual activity: 100%
[29]
  residual activity: 75%
[30]
  residual activity: 100%
[31]
  residual activity: 95%
[32]
  residual activity: 100%
[33]
  residual activity: 100%
[34]
  residual activity: 93%
[35]
  residual activity: 97%
[36]
  residual activity: 100%
[37]
  residual activity: 80%
[38]
  residual activity: 100%
[39]
  residual activity: 100%
[40]
  residual activity: 100%
[41]
  residual activity: 100%
[42]
  residual activity: 89%
[43]
  residual activity: 100%
[44]
  residual activity: 100%
[45]
  residual activity: 92%
